The results in this text go back to patent US7960556B2, “Thiadiazole derivatives for the treatment of neuro-degenerative diseases” (NV reMYND, priority 2006, dated 2011).

The assay concerns α-synuclein cytotoxicity in M17-SYNwt cells. Nature of the assay: α-synuclein cytotoxicity assay: LDH leakage from paraquat-treated M17-SYNwt neuroblastoma cells.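 On all read-outs here: paraquat at 32 mM co-added with compound, 40 h exposure, LDH activity released into the culture medium measured, references are DMSO-only cells and paraquat plus DMSO cells.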 Conditions: Homo sapiens, Neuroblastoma cell; for Emax: read-out: % Inhib. On the technique in general: Release of lactate dehydrogenase indicates damage to the cell membrane.

From the text: An α-synuclein expression plasmid was constructed by sub-cloning the NcoI/XhoI fragment from 212T-SYN(WT) (Griffioen et al., Biochem Biophys Acta (2006) 1762(3):312-318) containing the cDNA of human wild type α-synuclein correspondingly into a standard mammalian expression vector pcDNA3.1 (Invitrogen) resulting into the plasmid pcDNA3.1-SYNwt. Plasmids pcDNA3.1 and pcDNA3.1-SYNwt were transfected to human neuroblastoma cells (ATCC No. CRL-2267) and independent clonal lines with the plasmids stably integrated into the genome were selected. […] Over-expression of α-synuclein in M17-SYNwt cell lines was confirmed by Western analysis.
Due to the high levels of α-synuclein M17-SYNwt cells are exquisitely sensitivity to paraquat, a well-known risk factor of synuclein-dependent neuronal degeneration. In degenerated or dead cells lactate dehydrogenase (LDH) is leaked out of the cells into the extracellular environment due to a loss of plasma-membrane integrity. This principle was used to determine cytotoxicity by quantifying the level of leaked LDH into the growth medium.
The detailed method for determining α-synuclein cytotoxicity was as follows: From appropriate precultures of M17 and M17-SYN cells were seeded at 50,000 cells/cm^2 in Optimem Reduced Serum without phenol red (available from InVitrogen, Cat. 31985-047) supplemented with 5% fetal calf serum, 1 mM sodium pyruvate, 1× non-essential amino acids, 500 μg/ml G418 0,5× antibiotic/antimycotic. After 3 hours of incubation at 37° C./5% CO2 paraquat was added to the cells (final concentration of 32 mM), together with the test compound and the cells were further incubated for 40 hours. Subsequently, LDH activity was determined using Promega Cytotox 96 Non-Radioactive cytotoxicity assay, (Cat. G1780) according the instructions of the supplier.
In these experiments, the control group consisted of M17-SYNwt cells treated with DMSO, the untreated paraquat group consisted of M17-SYNwt cells treated with paraquat and DMSO, and the treated paraquat group consisted of M17-SYNwt cells treated with paraquat and the test compound dissolved in DMSO.

In the case of `O=C(Nc1ccc(F)c(F)c1)N1CCN(c2nc(Cc3ccc(F)cc3)ns2)CC1` [compound 28, N-(3,4-difluorophenyl)-4-[3-(4-fluorobenzyl)-1,2,4-thiadiazol-5-yl]piperazine-1-carboxamide], the Emax was found to be 64%.

On to `COc1cc(NC(=O)N2CCN(c3nc(Cc4ccc(F)cc4)ns3)CC2C)cc(OC)c1` (centres unmarked) [compound 29, N-(3,5-dimethoxyphenyl)-4-[3-(4-fluorobenzyl)-1,2,4-thiadiazol-5-yl]-2-methylpiperazine-1-carboxamide], for which the Emax came to 51%.

As to `CC(C)(C)c1ccc(S(=O)(=O)N2CCN(c3nc(Cc4ccc(F)cc4)ns3)CC2)cc1` [compound 30, 1-[4-tert-butylphenylsulfonyl]-4-[3-(4-fluorobenzyl)-1,2,4-thiadiazol-5-yl]piperazine], the Emax is 51%.

As a reminder, the EC50 is the concentration giving half of the maximal effect. A high value points to weaker potency. Consider `COc1ccc(S(=O)(=O)N2CCN(c3nc(Cc4ccc(Cl)cc4)ns3)CC2)cc1` [compound 31, 1-[4-methoxyphenylsulfonyl]-4-[3-(4-chlorobenzyl)-1,2,4-thiadiazol-5-yl]piperazine], for which a half-maximal effect (EC50) was put at 0.169 nM and the Emax stood at 59%.

As for `O=S(=O)(c1ccc(F)cc1)N1CCN(c2nc(Cc3ccc(Cl)cc3)ns2)CC1` [compound 33, 1-[4-fluorophenylsulfonyl]-4-[3-(4-chlorobenzyl)-1,2,4-thiadiazol-5-yl]piperazine], the midpoint of the response, the EC50, lay at 2.82 nM and the Emax stood at 53%.

In the case of `Cc1ccc(Cc2nsc(N3CCN(S(=O)(=O)c4ccc(Cl)cc4)C(C)C3)n2)cc1` (centres unmarked) [compound 34, 1-[4-chlorophenylsulfonyl]-4-[3-(4-methylbenzyl)-1,2,4-thiadiazol-5-yl]-2-methylpiperazine], the EC50 was determined as 65.7 nM and the Emax was determined as 66%.

As for `Cc1ccc(Cc2nsc(N3CCN(S(=O)(=O)c4cccc5ccccc45)CC3)n2)cc1` [compound 35, 1-[1-naphtylsulfonyl]-4-[3-(4-methylbenzyl)-1,2,4-thiadiazol-5-yl]piperazine], the response was half-maximal at 47.2 nM (EC50) and the Emax turned out to be 47%.

As for `Cc1ccc(Cc2nsc(N3CCN(S(=O)(=O)c4cc(Cl)ccc4Cl)C(C)C3)n2)cc1` (centres unmarked) [compound 36, 1-[2,5-dichlorophenylsulfonyl]-4-[3-(4-methylbenzyl)-1,2,4-thiadiazol-5-yl]-2-methylpiperazine], the midpoint of the response, the EC50, lay at 100 nM and the Emax is 52%.

Turning to `Cc1ccc(Cc2nsc(N3CCN(S(=O)(=O)c4c(C)cc(C)cc4C)CC3)n2)cc1` [compound 37, 1-[2,4,6-trimethylphenylsulfonyl]-4-[3-(4-methylbenzyl)-1,2,4-thiadiazol-5-yl]piperazine], the concentration for a half-maximal effect (EC50) amounted to 73.1 nM and the Emax came to 48%.

For the compound `O=S(=O)(c1cc(Cl)ccc1Cl)N1CCN(c2nc(Cc3ccc(Cl)cc3)ns2)CC1` [compound 39, 1-[2,5-dichlorophenylsulfonyl]-4-[3-(4-chlorobenzyl)-1,2,4-thiadiazol-5-yl]piperazine], it took 160 nM to reach a half-maximal effect (EC50) and the Emax was found to be 25%.

With `Cc1ccc(Cc2nsc(N3CCN(S(=O)(=O)c4ccc(C(C)(C)C)cc4)C(C)C3)n2)cc1` (centres unmarked) [compound 42, 1-[4-tert-butylphenylsulfonyl]-4-[3-(4-methylbenzyl)-1,2,4-thiadiazol-5-yl]-2-methylpiperazine], a half-maximal effect (EC50) was put at 870 nM and the Emax worked out at 33%.

As to `CC1CN(c2nc(Cc3ccc(Cl)cc3)ns2)CCN1S(=O)(=O)c1cccc2ccccc12` (centres unmarked) [compound 43, 1-[1-naphtylsulfonyl]-4-[3-(4-chlorobenzyl)-1,2,4-thiadiazol-5-yl]-2-methylpiperazine], the response was half-maximal at 890 nM (EC50) and the Emax was 35%.

As to `COc1cccc(S(=O)(=O)N2CCN(c3nc(Cc4ccc(F)cc4)ns3)CC2)c1` [compound 44, 1-[3-methoxyphenylsulfonyl]-4-[3-(4-fluorobenzyl)-1,2,4-thiadiazol-5-yl]piperazine], the half-maximal effective concentration (EC50) worked out at 128 nM and the Emax was 99%.

`Cc1ccc(Cc2nsc(N3CCN(S(=O)(=O)c4c(C)cc(C)cc4C)C(C)C3)n2)cc1` (centres unmarked) [compound 45, 1-[2,4,6-trimethylphenylsulfonyl]-4-[3-(4-methylbenzyl)-1,2,4-thiadiazol-5-yl]-2-methylpiperazine]: the response was half-maximal at 1200 nM (EC50) and the Emax came to 56%.

In the case of `CC1CN(c2nc(Cc3ccc(F)cc3)ns2)CCN1S(=O)(=O)c1cccc(C(F)(F)F)c1` (centres unmarked) [compound 46, 1-[3-trifluorophenylsulfonyl]-4-[3-(4-fluorobenzyl)-1,2,4-thiadiazol-5-yl]-2-methylpiperazine], the EC50 was found to be 1340 nM and the Emax turned out to be 64%.

On to `CC1CN(c2nc(Cc3ccc(F)cc3)ns2)CCN1S(=O)(=O)c1ccccc1` (centres unmarked) [compound 47, 1-phenylsulfonyl-4-[3-(4-fluorobenzyl)-1,2,4-thiadiazol-5-yl]-2-methylpiperazine], for which the Emax was determined as 129%.

As for `CC(=O)Nc1ccc(S(=O)(=O)N2CCN(c3nc(Cc4ccc(C)cc4)ns3)CC2C)cc1` (centres unmarked) [compound 48, 1-[4-acetamidophenylsulfonyl]-4-[3-(4-methylbenzyl)-1,2,4-thiadiazol-5-yl]-2-methylpiperazine], the EC50 is 8.44 nM and the Emax worked out at 91%.

For the compound `CC(=O)Nc1ccc(S(=O)(=O)N2CCN(c3nc(Cc4ccc(C)cc4)ns3)CC2)cc1` [compound 49, 1-[4-acetamidophenylsulfonyl]-4-[3-(4-methylbenzyl)-1,2,4-thiadiazol-5-yl]piperazine], the concentration giving a half-maximal response (EC50) was 0.106 nM and the Emax was 77%.

As to `Cc1ccc(Cc2nsc(N3CCN(S(=O)(=O)c4ccc(C)cc4)C(C)C3)n2)cc1` (centres unmarked) [compound 50, 1-[4-methylphenylsulfonyl]-4-[3-(4-methylbenzyl)-1,2,4-thiadiazol-5-yl]-2-methylpiperazine], the Emax stood at 105%.

In the case of `COc1ccc(S(=O)(=O)N2CCN(c3nc(Cc4ccc(Cl)cc4)ns3)CC2C)cc1` (centres unmarked) [compound 51, 1-[4-methoxyphenylsulfonyl]-4-[3-(4-chlorobenzyl)-1,2,4-thiadiazol-5-yl]-2-methylpiperazine], the EC50 came out at 1.35 nM and the Emax came to 94%.

On to `O=S(=O)(c1ccc2ccccc2c1)N1CCN(c2nc(Cc3ccc(Cl)cc3)ns2)CC1` [compound 52, 1-[2-naphtylsulfonyl]-4-[3-(4-chlorobenzyl)-1,2,4-thiadiazol-5-yl]piperazine], for which the EC50 was 100 nM and the Emax turned out to be 104%.

On to `COc1ccc(S(=O)(=O)N2CCN(c3nc(Cc4cccc(OC)c4)ns3)CC2)cc1` [compound 53, 1-[4-methoxyphenylsulfonyl]-4-[3-(3-methoxybenzyl)-1,2,4-thiadiazol-5-yl]piperazine], for which the concentration for a half-maximal effect (EC50) was 1.4 nM and the Emax worked out at 83%.

In the case of `CC1CN(c2nc(Cc3ccc(F)cc3)ns2)CCN1S(=O)(=O)c1ccc(C(C)(C)C)cc1` (centres unmarked) [compound 54, 1-[4-tert-butylphenylsulfonyl]-4-[3-(4-fluorobenzyl)-1,2,4-thiadiazol-5-yl]-2-methylpiperazine], the Emax came to 60%.

Consider `CC(=O)Nc1ccc(S(=O)(=O)N2CCN(c3nc(Cc4ccc(F)cc4)ns3)CC2C)cc1` (centres unmarked) [compound 55, 1-[4-acetamidophenylsulfonyl]-4-[3-(4-fluorobenzyl)-1,2,4-thiadiazol-5-yl]-2-methylpiperazine], for which the EC50 was 78.1 nM and the Emax worked out at 114%.

As for `Cc1ccc(Cc2nsc(N3CCN(S(=O)(=O)c4cccc(C(F)(F)F)c4)C(C)C3)n2)cc1` (centres unmarked) [compound 56, 1-[3-trifluoromethylphenylsulfonyl]-4-[3-(4-methylbenzyl)-1,2,4-thiadiazol-5-yl]-2-methylpiperazine], the Emax is 87%.

In the case of `Cc1ccc(Cc2nsc(N3CCN(S(=O)(=O)c4ccc(F)cc4)CC3)n2)cc1` [compound 57, 1-[4-fluorophenylsulfonyl]-4-[3-(4-methylbenzyl)-1,2,4-thiadiazol-5-yl]piperazine], a half-maximal effect (EC50) was put at 10.4 nM and the Emax came to 88%.

Consider `Cc1ccc(Cc2nsc(N3CCN(S(=O)(=O)c4ccc(F)cc4)C(C)C3)n2)cc1` (centres unmarked) [compound 58, 1-[4-fluorophenylsulfonyl]-4-[3-(4-methylbenzyl)-1,2,4-thiadiazol-5-yl]-2-methylpiperazine], for which the midpoint of the response, the EC50, lay at 61 nM and the Emax stood at 58%.

For the compound `CC1CN(c2nc(Cc3ccc(F)cc3)ns2)CCN1S(=O)(=O)c1ccc(F)cc1` (centres unmarked) [compound 59, 1-[4-fluorophenylsulfonyl]-4-[3-(4-fluorobenzyl)-1,2,4-thiadiazol-5-yl]-2-methylpiperazine], the Emax came out at 42%.

With `COc1ccc(S(=O)(=O)N2CCN(c3nc(Cc4ccc(C)cc4)ns3)CC2C)cc1` (centres unmarked) [compound 60, 1-[4-methoxyphenylsulfonyl]-4-[3-(4-methylbenzyl)-1,2,4-thiadiazol-5-yl]-2-methylpiperazine], the response was half-maximal at 0.033 nM (EC50) and the Emax came out at 93%.

Regarding `Cc1ccc(Cc2nsc(N3CCN(S(=O)(=O)c4cccc(C(F)(F)F)c4)CC3)n2)cc1` [compound 62, 1-[3-trifluoromethylphenylsulfonyl]-4-[3-(4-methylbenzyl)-1,2,4-thiadiazol-5-yl]piperazine], the Emax is 45%.

As for `Cc1ccc(S(=O)(=O)N2CCN(c3nc(Cc4ccc(Cl)cc4)ns3)CC2)cc1` [compound 63, 1-[4-methylphenylsulfonyl]-4-[3-(4-chlorobenzyl)-1,2,4-thiadiazol-5-yl]piperazine], a half-maximal response (EC50) required 80.7 nM and the Emax stood at 83%.

Consider `Cc1ccc(Cc2nsc(N3CCN(S(=O)(=O)c4ccc(Br)cc4)CC3)n2)cc1` [compound 64, 1-[4-bromophenylsulfonyl]-4-[3-(4-methylbenzyl)-1,2,4-thiadiazol-5-yl]piperazine], for which the Emax worked out at 58%.

Turning to `Cc1ccc(Cc2nsc(N3CCN(S(=O)(=O)c4ccc5ccccc5c4)CC3)n2)cc1` [compound 65, 1-[2-naphtylsulfonyl]-4-[3-(4-methylbenzyl)-1,2,4-thiadiazol-5-yl]piperazine], the EC50 stood at 39.3 nM and the Emax was found to be 78%.
